Reference: PubChem BioAssay AID1918958 (Molecular Pharmacology Branch, DTP, NCI, 2023)

Test system: NCI-H196 complex spheroid viability
Test: Anticancer human tumor NCI-H196 cell line growth inhibition [LSD1];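 also: spheroids exposed to agents for 7 days before readout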;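 as to viability, T/C: 100% = DMSO vehicle control viability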
Conditions: for IC50: curve of first compound; for viability, T/C: stronger effect = lower value
In short: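 Complex spheroids of tumor cells with HUVEC and human MSCs, exposed to iadademstat combined with other agents. Each agent tested in half-log steps from near clinical Cmax (else 10 microM top), DMSO ≤0.25%.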

[1] = second compound 0.1 µM, first compound 0.00949 µM
[2] = second compound 0.1 µM, first compound 0.03 µM
[3] = second compound 0.1 µM, first compound 0.0949 µM
[4] = second compound 0.1 µM, first compound 0.3 µM
[5] = second compound 0.316 µM, first compound 0.00949 µM
[6] = second compound 0.316 µM, first compound 0.03 µM
[7] = second compound 0.316 µM, first compound 0.0949 µM
[8] = second compound 0.316 µM, first compound 0.3 µM
[9] = second compound 1 µM, first compound 0.00949 µM
[10] = second compound 1 µM, first compound 0.03 µM
[11] = second compound 1 µM, first compound 0.0949 µM
[12] = second compound 1 µM, first compound 0.3 µM
[13] = second compound 3.16 µM, first compound 0.00949 µM
[14] = second compound 3.16 µM, first compound 0.03 µM
[15] = second compound 3.16 µM, first compound 0.0949 µM
[16] = second compound 3.16 µM, first compound 0.3 µM
[17] = second compound 10 µM, first compound 0.00949 µM
[18] = second compound 10 µM, first compound 0.03 µM
[19] = second compound 10 µM, first compound 0.0949 µM
[20] = second compound 10 µM, first compound 0.3 µM

| Structure (SMILES) | IC50 (second compound 0.1 µM) [µM] | IC50 (second compound 0.316 µM) [µM] | IC50 (second compound 1 µM) [µM] | IC50 (second compound 3.16 µM) [µM] | IC50 (second compound 10 µM) [µM] | viability, T/C [1] [%] | viability, T/C [2] [%] | viability, T/C [3] [%] | viability, T/C [4] [%] | viability, T/C [5] [%] | viability, T/C [6] [%] | viability, T/C [7] [%] | viability, T/C [8] [%] | viability, T/C [9] [%] | viability, T/C [10] [%] | viability, T/C [11] [%] | viability, T/C [12] [%] | viability, T/C [13] [%] | viability, T/C [14] [%] | viability, T/C [15] [%] | also measured |
| --- | --- | --- | --- | --- | --- | --- | --- | --- | --- | --- | --- | --- | --- | --- | --- | --- | --- | --- | --- | --- | --- |
| COc1cc(C2c3cc4c(cc3C(OC3OC5COC(C)OC5C(O)C3O)C3COC(=O)C23)OCO4)cc(OC)c1O (stereo not given) + NC1CCC(NC2CC2c2ccccc2)CC1 | > 3 | > 3 | > 3 | > 3 | > 3 | 94.1 | 97.2 | 113 | 104 | 102 | 90.1 | 104 | 104 | 89.5 | 105 | 98.8 | 103 | 120 | 91.2 | 104 | viability, T/C (second compound 0.1 µM, first compound 0.949 µM): 87.1%; viability, T/C (second compound 0.1 µM, first compound 3 µM): 59.7%; viability, T/C (second compound 0.316 µM, first compound 0.949 µM): 94.7%; viability, T/C (second compound 0.316 µM, first compound 3 µM): 66.1%; viability, T/C (second compound 1 µM, first compound 0.949 µM): 93.4%; viability, T/C (second compound 1 µM, first compound 3 µM): 70.3%; viability, T/C [16]: 110%; viability, T/C (second compound 3.16 µM, first compound 0.949 µM): 89.6%; viability, T/C (second compound 3.16 µM, first compound 3 µM): 55.9%; viability, T/C [17]: 103%; viability, T/C [18]: 91.9%; viability, T/C [19]: 95.5%; viability, T/C [20]: 96.3%; viability, T/C (second compound 10 µM, first compound 0.949 µM): 81.6%; viability, T/C (second compound 10 µM, first compound 3 µM): 59.1% |
| Nc1ccn(C2OC(CO)C(O)C2(F)F)c(=O)n1 (stereo not given) + NC1CCC(NC2CC2c2ccccc2)CC1 | > 0.3 | > 0.3 | > 0.3 | > 0.3 | > 0.3 | 85.9 | 65.1 | 61.8 | 68.1 | 93.7 | 69.2 | 59.2 | 70.3 | 85 | 63.9 | 64.2 | 63.5 | 88.2 | 63.8 | 63.8 | viability, T/C (second compound 0.1 µM, first compound 0.000949 µM): 104%; viability, T/C (second compound 0.1 µM, first compound 0.003 µM): 98.6%; viability, T/C (second compound 0.316 µM, first compound 0.000949 µM): 96.8%; viability, T/C (second compound 0.316 µM, first compound 0.003 µM): 99.3%; viability, T/C (second compound 1 µM, first compound 0.000949 µM): 97.3%; viability, T/C (second compound 1 µM, first compound 0.003 µM): 96.7%; viability, T/C (second compound 3.16 µM, first compound 0.000949 µM): 99.7%; viability, T/C (second compound 3.16 µM, first compound 0.003 µM): 103%; viability, T/C [16]: 68.3%; viability, T/C (second compound 10 µM, first compound 0.000949 µM): 94.2%; viability, T/C (second compound 10 µM, first compound 0.003 µM): 108%; viability, T/C [17]: 86.5%; viability, T/C [18]: 75.6%; viability, T/C [19]: 65%; viability, T/C [20]: 67.4% |
